Experiments:
Type in all cases: cell-based, Sprague-Dawley rats
[1] = test system: Akt; test: Western blot of Akt phosphorylation in VSMC induced by PDGF-BB; conditions: for decrease of Akt phosphorylation: 30 μM LAB, 20 mM NAC, 40 μM LY294002, 1 h, then PDGF-BB 10 min, FIG. 4C
Description: (§1) VSMC was washed with PBS and then dissolved in lysis buffer (25 mM Tris HCl, pH 7.4, 25 mM NaCl, 25 mM NaF, 25 mM sodium pyrophosphate, 1 mM sodium vanadate, 2.5 mM EDTA, 2.5 mM EGTA, 0.05% (wt/vol) Triton X-100, 0.5% (wt/vol) SDS, 0.5% (wt/vol) deoxycholate, 0.5% (wt/vol) Nonidet P-40, […], and 1 mM PMSF). The cells were collected and centrifuged at 13,000 rpm for 15 min and the protein concentration of the resulting supernatant was measured by Bradford assay. The proteins were denatured and were subjected to SDS-PAGE and then blotted onto nitrocellulose membranes. The membranes were placed in 5% (w/v) non-fat dry milk in TBS with 0.1% Tween20 (TBS-T) and then placed at room temperature for 3 hrs. The blots were placed at 4° C. along with anti-ERK1/2 or anti-Akt antibodies (Cell signaling Technologh, Berely. Mass., USA) for 16 hrs. The membranes were washed 4 times with TBS-T, added with anti-rabbit IgG antibody conjugated with horseradish peroxidase (1:2,000 diluent) and then placed at room temperature for 1 hr. The immunoreactive bands detected by ECL reagents were developed by Hyperfilm-ECL (Amersham Life Science, Little Chalfont, UK). The bands showing positive responses were quantitated by densitometry and then compared with that of control.
(§2) In FIG. 1B, it is shown that both U0126 (20 μM) and LY294002 (40 μM) inhibited activities of LDH and MTT induced by PDGF-BB. As a way to investigate the signal transduction pathway involved in VSMC proliferation induced by PDGF-BB, an experiment was conducted to examine whether PDGF-BB activates a relatively lower signal transduction pathway such as ERK1/2 and Akt.

[2] = test system: ERK1/2; test: Western blot of ERK1/2 phosphorylation in VSMC induced by PDGF-BB
Description: as §1, §2

[3] = test system: vascular smooth muscle cells; test: VSMC proliferation induced by PDGF-BB (LDH and MTT assays); conditions: data not shown
From the text: Vascular smooth muscle cells ('VSMC' hereinafter) were separated from thoracic aorta of a Sprague-Dawley weighted about 100-150 g by using collagenase digestion method and then cultured them according to the method disclosed in previous studies [[…], et al. Role of p44/p42 MAP kinase in the age-dependent increase in vascular smooth muscle cell proliferation and neointimal formation. Arterioscler Thromb Vasc Biol. Feb. 1 2003; 23(2):204-210.; Hamaguchi A, Kim S, Izumi Y, et al. Contribution of extracellular signal-regulated kinase to angiotensin II-induced transforming growth factor-beta1 expression in vascular smooth muscle cells. Hypertension. July 1999; 34(1):126-131]. […] The VSMC was treated in a culture medium not containing serum for 24 hrs prior to treatment with PDGF-BB, and the reaction according to the presence or absence of PDGF-BB was analyzed after pretreating with LAB or other reagents. […] The cells were then washed twice with PBS, lysed by using 0.5% Triton-X100, and then the activity of lactate dehydronase (LDH) was measured by using CytoTox-ONETM assay kit (Promega, Madison, Wis., USA) with fluorescence at […]. […]

[4] = test system: vascular smooth muscle cells; test: VSMC migration induced by PDGF-BB (modified Boyden chamber); conditions: PDGF-BB 10 ng/mL as chemoattractant, 16 hrs
Description: The migration of VSMC with 8 μm of pores was measured by using modified Boyden chamber method [Brown C, Pan X, Hassid A. Nitric oxide and C-type atrial natriuretic peptide stimulate primary aortic smooth muscle cell migration via a cGMP-dependent mechanism: relationship to microfilament dissociation and altered cell morphology. Circ Res. Apr. 2 1999; 84(6):655-667], which utilizes collagen-coated transwell tissue culture inserts consisting of polycarbonate membrane. 3.0×10^6 cells/mL of the above vascular smooth muscle cells were allowed to float in a culture medium without serum, treated with LAB with various concentrations and then cultured at 37° C. for 30 min. Then, the cells were treated with either 0.5 mL DMEM without serum or 0.5 mL DMEM without serum along with PDGF-BB 10 ng/mL and then placed in the lower part of a chamber. 100 μL of the folating materials of the above cells (final 3.0×10^5 cells/well) was added to the upper part of the chamber and cultured at 37° C. for 16 hrs. The cells were then fixed, dyed with hematoxylin, and filters were dried and developed.
It is known that […] plays an important role in proliferation of VSMC as well as development of atherosclerosis. To investigate whether LAB decreases the migration of VSMC induced by PDGF-BB, an experiment was performed as follows by using the aforementioned modified Boyden chamber method.

[5] = test system: intracellular reactive oxygen species; test: Intracellular reactive oxygen species in VSMC (DCF fluorescence); conditions: PDGF-BB 10 ng/mL vs control
Description: The amount of reactive oxygen species in cells was measured as described in the previous report [Hamaguchi A, Kim S, Izumi Y, et al. Contribution of extracellular signal-regulated kinase to angiotensin II-induced transforming growth factor-beta1 expression in vascular smooth muscle cells. Hypertension. July 1999; 34(1):126-131]. VSMC was cultured in a culture medium without serum for 24 hrs to stop cell proliferation and then pretreated with LAB with various concentrations of 1, 5, 10, 20, 30 μM for 1 hr. The cells were treated with either 10 ng/mL of PDGF-BB for 10 min or with 100 μM H2O2 for 1 min and then cultured in the presence of 5-(and-6)-chloromethyl-2′,7′-dichlorohydrofluorescein diacetate(CM-H2DCF-DA: Molecular Probes Inc., Eurogene, Oreg., USA) in the dark room for 10 min and cultured cells and generation of reactive oxygen species were observed by using fluorescent microscope.
First, the amount of intracellular reactive oxygen species generated by PDGF-BB was measured by using peroxide-sensitive fluorophore DCF. As shown in FIG. 3A (B-1), the amount of intracellular reactive oxygen species generated by PDGF-BB evaluated with DCF fluorescence was 2.7 times greater. […] In this experiment, LAB was treated with PDGF-BB for 10 min. When LAB was pretreated, the amount of DCF fluorescence was decreased as compared to when it was treated only with PDGF-BB [FIG. 3A(A)]. […] Further, LAB decreased the activity of hydrogen peroxide, which increases the generation of intracellular reactive oxygen species, in proportion to its concentration (FIG. 3A(C)).

In the case of `O=c1cc(N2CCOCC2)oc2c(-c3ccccc3)cccc12` [LY294002, (2-(4-morpholinyl)-8-phenyl)-4H-1-benzopyran-4-one, reference compound], the “decrease of Akt phosphorylation” value [1] is reported as 3.5 folds.
`CC(=O)N[C@@H](CS)C(=O)O` [NAC, N-acetylcysteine, reference compound] was tested, and the “decrease of ERK1/2 phosphorylation” value ([2]; 30 μM LAB, 20 mM NAC, 1 h, then PDGF-BB 10 min, FIG. 5C) was 0.6 fold and the “decrease of Akt phosphorylation” value [1] was 3.4 folds.
`Oc1ccc(-c2nc(-c3ccncc3)c(-c3ccc(F)cc3)[nH]2)cc1` [SB202190, reference compound] was tested, and the “inhibitory activity against VSMC proliferation induced by PDGF-BB” value [3] was “no distinct inhibitory activity”.
For “PDGF-BB: platelet-derived growth factor (Sigma-Aldrich), stimulus of VSMC proliferation and migration [reference compound]”, the “increase of VSMC migration” value [4] was “about 60%”, the “amount of intracellular reactive oxygen species (DCF fluorescence), increase” value [5] was 2.7 times and the “increase of ERK1/2 activity” value ([2]; treated with PDGF-BB 10 ng/mL, FIG. 5A) was 11 folds. For the same compound, the “increase of Akt activity” value ([1]; treated with PDGF-BB 10 ng/mL, FIG. 4A) was 7 folds.

— patent US20090227671A1, “Prevention and treatment of atherosclerosis with lithospermate B” (Industry-Academic Cooperation Foundation, priority 2005, published 2009)
